Experimental data taken from ChEMBL document CHEMBL1146018, “The design and synthesis of a tricyclic single-nitrogen scaffold that serves as a 5-HT2C receptor agonist” (Bioorg Med Chem Lett, 2006).
Activity calls are given as the source filed them. The calls are words filed in the database; no cut-off is given here.

What was measured:
[1] = target: T1, 5-hydroxytryptamine receptor 2C (Homo sapiens, UniProt P28335); assay: Binding affinity to 5HT2C
T1 sequence (P28335 whole entry): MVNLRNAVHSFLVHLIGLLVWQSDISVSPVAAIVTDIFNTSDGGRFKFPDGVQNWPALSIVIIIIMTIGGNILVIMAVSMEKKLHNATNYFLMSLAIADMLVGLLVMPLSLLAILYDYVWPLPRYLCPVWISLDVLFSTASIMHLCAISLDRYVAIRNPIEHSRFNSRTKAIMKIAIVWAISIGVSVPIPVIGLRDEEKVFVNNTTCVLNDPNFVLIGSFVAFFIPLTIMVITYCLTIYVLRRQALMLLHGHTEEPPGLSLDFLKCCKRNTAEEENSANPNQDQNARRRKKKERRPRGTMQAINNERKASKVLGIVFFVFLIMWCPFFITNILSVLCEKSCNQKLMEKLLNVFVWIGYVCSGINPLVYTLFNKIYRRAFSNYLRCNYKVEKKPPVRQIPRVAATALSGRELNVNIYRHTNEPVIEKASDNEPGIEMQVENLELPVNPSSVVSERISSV

[2] = target: Serotonin 2 receptors; 5-HT2a & 5-HT2c (Homo sapiens) (UniProt P28223+P28335); assay: Selectivity for 5HT2C over 5HT2A; format: protein assay
Serotonin 2 receptors; 5-HT2a & 5-HT2c (Homo sapiens), sequence (P28223 whole entry, looked up, one chain of several): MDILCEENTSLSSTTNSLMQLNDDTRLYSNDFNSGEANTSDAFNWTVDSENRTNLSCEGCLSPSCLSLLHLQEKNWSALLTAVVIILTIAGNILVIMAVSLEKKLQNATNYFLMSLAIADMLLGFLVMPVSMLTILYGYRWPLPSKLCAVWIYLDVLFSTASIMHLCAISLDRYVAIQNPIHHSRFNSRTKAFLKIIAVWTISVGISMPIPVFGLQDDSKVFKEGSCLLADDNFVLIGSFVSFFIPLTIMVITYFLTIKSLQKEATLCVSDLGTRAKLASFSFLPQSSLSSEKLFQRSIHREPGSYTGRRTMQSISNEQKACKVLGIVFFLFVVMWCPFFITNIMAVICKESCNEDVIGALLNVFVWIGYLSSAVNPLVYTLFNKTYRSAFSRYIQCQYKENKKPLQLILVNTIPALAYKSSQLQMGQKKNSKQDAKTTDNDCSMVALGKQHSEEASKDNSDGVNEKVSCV

[3] = target: Serotonin receptor (2b and 2c) (Homo sapiens) (UniProt P41595+P28335); assay: Selectivity for 5HT2C over 5HT2B; format: protein assay
[4] = target: T1, 5-hydroxytryptamine receptor 2C; assay: […] of 5HT2C assessed as intracellular calcium concentration; format: functional, cell-based
[5] = Clearance in dog at 1.0 mg/kg, iv; format: ADME, organism-based, Canis lupus familiaris; parameters: dose 1 mg/kg, route intravenous; details: in vivo
[6] = Half life in dog at 1.0 mg/kg, iv; format: ADME, organism-based, Canis lupus familiaris; parameters: dose 1 mg/kg, route intravenous; details: in vivo
[7] = Oral bioavailability in dog at 10.6 mg/kg, po; format: ADME, organism-based, Canis lupus familiaris; details: in vivo
Rattus norvegicus [8] = assay: Reduction of food intake in ip dosed rat; format: functional, organism-based
Rattus norvegicus [9] = assay: Reduction of food intake in rat at 10 mg/kg, ip after 4 hrs; format: functional, organism-based; parameters: dose 10 mg/kg
Rattus norvegicus [10] = assay: Reduction of food intake in rat at 20 mg/kg, ip after 24 hrs; format: functional, organism-based; parameters: dose 20 mg/kg
[11] = Oral bioavailability in rat at 10.6 mg/kg, po; format: ADME, organism-based; details: in vivo
[12] = Ratio of drug level in brain against plasma measured as AUC cortex/AUC plasma at 1.2 mg/kg, iv; format: ADME, organism-based; parameters: dose 1.2 mg/kg, route intravenous; details: rat, read-out: BPR
[13] = Clearance in rat at 1.2 mg/kg, iv; format: ADME, organism-based; parameters: dose 1.2 mg/kg, route intravenous; details: in vivo
[14] = Half life in rat at 1.2 mg/kg, iv; format: ADME, organism-based; parameters: dose 1.2 mg/kg, route intravenous; details: in vivo

## CC1c2cc(Cl)c(Cl)cc2[C@H]2CNC[C@@H]12 (mixture of isomers)
[1]
  Ki: 103 nM

## Cc1cc2c(cc1Br)[C@H]1CNC[C@H]1C2C (mixture of isomers)
[1]
  Ki: 207 nM

## C[C@H]1c2c(ccc(Cl)c2Cl)[C@H]2CNC[C@H]21
[1]
  Ki: 5 nM
[2]
  Selectivity ratio: 50
[3]
  Selectivity ratio: 73

## Cc1cc2c(cc1Cl)[C@H]1CNC[C@H]1C2C (mixture of isomers)
[1]
  Ki: 465 nM

## CCOc1cc2c(cc1Cl)[C@H](C)[C@@H]1CNC[C@H]21
[1]
  Ki: 231 nM
[2]
  Selectivity ratio: 9
[3]
  Selectivity ratio: 31

## Cc1cc2c(cc1Cl)[C@H](C)[C@@H]1CNC[C@H]21
[1]
  Ki: 155 nM
[2]
  Selectivity ratio: 8
[3]
  Selectivity ratio: 32

## COc1cc2c(cc1Br)[C@H](C)[C@@H]1CNC[C@H]21
[1]
  Ki: 27 nM
[2]
  Selectivity ratio: 12
[3]
  Selectivity ratio: 81

## Clc1ccc2c(c1)C[C@@H]1CNC[C@H]21
[2]
  Selectivity ratio: 14
[3]
  Selectivity ratio: 19
[4]
  EC50: 11 nM

## Cc1ccc2c(c1)[C@H]1CNC[C@H]1C2C (mixture of isomers)
[1]
  Ki: 3310 nM

## Cc1ccc2c(c1)C(C)[C@@H]1CNC[C@H]21 (mixture of isomers)
[1]
  Ki: 1700 nM

## Cc1cc2c(cc1Br)C(C)[C@@H]1CNC[C@H]21 (mixture of isomers)
[1]
  Ki: 463 nM

## COc1cc2c(cc1Cl)C(C)[C@@H]1CNC[C@H]21 (mixture of isomers)
[1]
  Ki: 530 nM

## Cc1cc2c(cc1Cl)C(C)[C@@H]1CNC[C@H]21 (mixture of isomers)
[1]
  Ki: 107 nM

## Cc1cccc2c1[C@H]1CNC[C@H]1C2C (mixture of isomers)
[1]
  Ki: 1850 nM

## COc1cc2c(cc1Cl)[C@H](C)[C@@H]1CNC[C@H]21
[1]
  Ki: 14 nM
[2]
  Selectivity ratio: 73
[3]
  Selectivity ratio: 235
[4]
  EC50: 6 nM
[5]
  clearance: 39 mL/min/kg
[6]
  half-life: 3.5 h
[7]
  bioavailability: 80%
Rattus norvegicus [8]
  Activity: Dose-dependent effect
Rattus norvegicus [9]
  Activity: Active
Rattus norvegicus [10]
  Activity: Active
[11]
  bioavailability: 40%
[12]
  Kp: 15
[13]
  clearance: 31 mL/min/kg
[14]
  half-life: 1.8 h

## C[C@@H]1c2cc(Cl)c(Cl)cc2[C@H]2CNC[C@@H]12
[1]
  Ki: 1140 nM
[2]
  Selectivity ratio: 2
[3]
  Selectivity ratio: 3

## CC1c2ccc(F)cc2[C@H]2CNC[C@@H]12 (mixture of isomers)
[1]
  Ki: 3010 nM

## C[C@H]1c2cc(Cl)c(Cl)cc2[C@H]2CNC[C@H]21
[1]
  Ki: 155 nM
[2]
  Selectivity ratio: 8
[3]
  Selectivity ratio: 32

## C[C@H]1c2cc(Cl)ccc2[C@H]2CNC[C@H]21
[1]
  Ki: 911 nM
[2]
  Selectivity ratio: 56
[3]
  Selectivity ratio: 132
[4]
  EC50: 54 nM

## Cc1cc2c(cc1Cl)[C@H]1CNC[C@H]1[C@H]2C
[1]
  Ki: 134 nM
[2]
  Selectivity ratio: 11
[3]
  Selectivity ratio: 14

## C[C@H]1c2cc(Cl)c(O)cc2[C@H]2CNC[C@H]21
[1]
  Ki: 27 nM
[2]
  Selectivity ratio: 27
[3]
  Selectivity ratio: 63

## CC1c2cc(F)ccc2[C@H]2CNC[C@@H]12 (mixture of isomers)
[1]
  Ki: > 10000 nM

## Cc1cccc2c1C(C)[C@@H]1CNC[C@H]21 (mixture of isomers)
[1]
  Ki: 3380 nM
